Assay results taken from patent US10519111B2, “UV absorbing compounds, compositions comprising same and uses thereof” (CORAL SUNSCREEN PTY LTD, priority 2013, dated 2019).
Blank lines part the entries; values can stand above or below the compound they belong to.

Columns and labels:
[1] = Critical wavelength (λcrit), approximate in-house measurement; type: physicochemical
Text: As the precise test for critical wavelength was unable to be replicated exactly by the inventors due to the need for specialist equipment and a specific calibration of the spectrophotometer, these values are only approximate to a degree. […] This represents a highly useful result and so, compounds based around this benzoyl substitution pattern shown, are especially preferred.

[2] = UV absorption properties (λmax, molar extinction coefficient ε, efficiency E 1%, 1 cm); type: physicochemical
[3] = Table 6B, N-tert-butyl compounds
[4] = Table 7, values in order of the λmax values
[5] = Table 9, C3-trifluoroacetylated N-aryl enamines

Structure (SMILES): CC1(C)CCN(C(C)(C)C)C=C1C(=O)c1ccc(C(=O)C2=CN(C(C)(C)C)CCC2(C)C)cc1 [drawing 97]
λcrit ([1]; Table 6B): 355 nm
E (1%, 1 cm) ([2]; Table 6B): 732
λmax [2, 3]: 317 nm
ε ([2]; Table 6B, in M-1 cm-1): 33982

Structure (SMILES): CC1(C)CCN(C(C)(C)C)C=C1C(=O)c1ccc(C(=O)O)cc1 [drawing 98]
λcrit ([1]; Table 6B): 353 nm
E (1%, 1 cm) ([2]; Table 6B): 549
λmax [2, 3]: 317 nm
ε ([2]; Table 6B, in M-1 cm-1): 17300

Structure (SMILES): CC(C)CN1C=C(C(=O)/C=C/c2ccccc2)C(C)(C)CC1 [drawing 111]
λcrit ([1]; Table 7): 383 nm
λmax ([2]; Table 7, unsaturated compounds): 360 nm
E (1%, 1 cm) [2, 4]: 533
ε [2, 4]: 16000 M⁻¹ cm⁻¹

Structure (SMILES): C=CC(=O)C1=CN(CC(C)C)CCC1(C)C [drawing 112]
λcrit ([1]; Table 7): 363 nm
λmax ([2]; Table 7, unsaturated compounds): 330 nm
E (1%, 1 cm) [2, 4]: 915
ε [2, 4]: 20500 M⁻¹ cm⁻¹

Structure (SMILES): CC(C)CN1C=C(C(=O)/C=C/c2ccc(C(F)(F)F)cc2)C(C)(C)CC1 [drawing 113]
λcrit ([1]; Table 7): 388 nm
λmax ([2]; Table 7, unsaturated compounds): 369 nm
E (1%, 1 cm) [2, 4]: 463
ε [2, 4]: 17000 M⁻¹ cm⁻¹

Structure (SMILES): COc1ccc(/C=C/C(=O)C2=CN(CC(C)C)CCC2(C)C)cc1 [drawing 114]
λcrit ([1]; Table 7): 386 nm
λmax ([2]; Table 7, unsaturated compounds): 364 nm
E (1%, 1 cm) [2, 4]: 493
ε [2, 4]: 16150 M⁻¹ cm⁻¹

Structure (SMILES): C=C/C=C/C(=O)C1=CN(CC(C)C)CCC1(C)C [drawing 117]
λcrit ([1]; Table 7): 381 nm
λmax ([2]; Table 7, unsaturated compounds): 352 nm
E (1%, 1 cm) [2, 4]: 730
ε [2, 4]: 18000 M⁻¹ cm⁻¹

Structure (SMILES): C=CC(=O)C1=CN(c2ccc(OC)cc2)CCC1(C)C [drawing 128]
λcrit ([1]; Table 8a): 379 nm
E (1%, 1 cm) ([2]; Table 8a): 794
ε ([2]; Table 8a): 21500 M⁻¹ cm⁻¹
λmax ([2]; Table 8a, N-phenyl compounds): 350 nm

Structure (SMILES): COc1ccc(N2C=C(C(=O)c3ccc(F)cc3)C(C)(C)CC2)cc1 [drawing 129]
λcrit ([1]; Table 8a): 369 nm
E (1%, 1 cm) ([2]; Table 8a): 571
ε ([2]; Table 8a): 19350 M⁻¹ cm⁻¹
λmax ([2]; Table 8a, N-phenyl compounds): 341 nm

Structure (SMILES): COc1ccc(N2C=C(C(=O)C3CCCC3=O)C(C)(C)CC2)cc1 (centres unmarked) [drawing 130]
λcrit ([1]; Table 8b): 358 nm
E (1%, 1 cm) ([2]; Table 8b): 938
λmax ([2]; Table 8b, N-phenyl compounds): 332 nm
ε ([2]; Table 8b, in M-1 cm-1): 30675

Structure (SMILES): Cc1ccc(N2C=C(C(=O)CCCCCCCCC(=O)C3=CN(c4ccc(C)cc4)CCC3(C)C)C(C)(C)CC2)cc1 [drawing 131]
λcrit ([1]; Table 8b): 349 nm
E (1%, 1 cm) ([2]; Table 8b): 928
λmax ([2]; Table 8b, N-phenyl compounds): 328 nm
ε ([2]; Table 8b, in M-1 cm-1): 52737

Structure (SMILES): CCCCCCCC(=O)C1=CN(c2ccc(N(C)C)cc2)CCC1(C)C [drawing 134]
λcrit ([1]; Table 8b): 371 nm
E (1%, 1 cm) ([2]; Table 8b): 785
λmax ([2]; Table 8b, N-phenyl compounds): 338 nm
ε ([2]; Table 8b, in M-1 cm-1): 28040

Structure (SMILES): CC1(C)CCN(c2ccc(C(C)(C)C)cc2)C=C1C(=O)C(F)(F)F [drawing 139]
λcrit ([1]; Table 9): 361 nm
E (1%, 1 cm) ([2]; Table 9): 1260
λmax [2, 5]: 337 nm
ε ([2]; Table 9, in M-1 cm-1): 42723

Structure (SMILES): COc1ccc(N2C=C(C(=O)C(F)(F)F)C(C)(C)CC2)cc1 [drawing 140]
λcrit ([1]; Table 9): 365 nm
E (1%, 1 cm) ([2]; Table 9): 774
λmax [2, 5]: 339 nm
ε ([2]; Table 9, in M-1 cm-1): 24235

The next lines start with the values.

λcrit ([1]; Table 8a): 349 nm
E (1%, 1 cm) ([2]; Table 8a): 947
ε ([2]; Table 8a): 23000 M⁻¹ cm⁻¹
λmax ([2]; Table 8a, N-phenyl compounds): 321 nm
Structure (SMILES): CCC(=O)C1=CN(c2ccccc2)CCC1(C)C [drawing 122]

λcrit ([1]; Table 8a): 373 nm
E (1%, 1 cm) ([2]; Table 8a): 874
ε ([2]; Table 8a): 21000 M⁻¹ cm⁻¹
λmax ([2]; Table 8a, N-phenyl compounds): 346 nm
Structure (SMILES): C=CC(=O)C1=CN(c2ccccc2)CCC1(C)C [drawing 123]

λcrit ([1]; Table 8a): 366 nm
E (1%, 1 cm) ([2]; Table 8a): 629
ε ([2]; Table 8a): 23300 M⁻¹ cm⁻¹
λmax ([2]; Table 8a, N-phenyl compounds): 338 nm
Structure (SMILES): CC1(C)CCN(c2ccccc2)C=C1C(=O)c1ccc(Br)cc1 [drawing 124]

λcrit ([1]; Table 8a): 350 nm
E (1%, 1 cm) ([2]; Table 8a): 862
ε ([2]; Table 8a): 23500 M⁻¹ cm⁻¹
λmax ([2]; Table 8a, N-phenyl compounds): 328 nm
Structure (SMILES): CCC(=O)C1=CN(c2ccc(OC)cc2)CCC1(C)C [drawing 127]

λcrit ([1]; Table 8b): 362 nm
E (1%, 1 cm) ([2]; Table 8b): 759
λmax ([2]; Table 8b, N-phenyl compounds): 339 nm
ε ([2]; Table 8b, in M-1 cm-1): 26633
Structure (SMILES): COc1ccc(N2C=C(C(=O)COc3ccccc3)C(C)(C)CC2)cc1 [drawing 132]

λcrit ([1]; Table 8b): 350 nm
E (1%, 1 cm) ([2]; Table 8b): 1008
λmax ([2]; Table 8b, N-phenyl compounds): 334 nm
ε ([2]; Table 8b, in M-1 cm-1): 33786
Structure (SMILES): COc1ccc(N2C=C(C(=O)Cc3ccccc3)C(C)(C)CC2)cc1 [drawing 133]

λcrit ([1]; Table 8b): 348 nm
E (1%, 1 cm) ([2]; Table 8b): 1347
λmax ([2]; Table 8b, N-phenyl compounds): 327 nm
ε ([2]; Table 8b, in M-1 cm-1): 34608
Structure (SMILES): CCC(=O)C1=CN(c2ccc(C)cc2)CCC1(C)C [drawing 135]

λcrit ([1]; Table 8b): 348 nm
E (1%, 1 cm) ([2]; Table 8b): 1069
λmax ([2]; Table 8b, N-phenyl compounds): 329 nm
ε ([2]; Table 8b, in M-1 cm-1): 31955
Structure (SMILES): CCC(=O)C1=CN(c2ccc(C(C)(C)C)cc2)CCC1(C)C [drawing 136]

λcrit ([1]; Table 8b): 346 nm
E (1%, 1 cm) ([2]; Table 8b): 793
λmax ([2]; Table 8b, N-phenyl compounds): 321 nm
ε ([2]; Table 8b, in M-1 cm-1): 23247
Structure (SMILES): CCC(=O)C1=CN(c2cccc3ccccc23)CCC1(C)C [drawing 137]
